In US8952024B2, “Herbicidal pyrimidone derivatives” (E I du Pont de Nemours and Company, priority 2009, dated 2015):

Legend:
Assay in all cases: Test B pre-/postemergence plant response
Assay type in all cases: in vivo
[1] = test system: Italian ryegrass (Lolium multiflorum); details: for Ryegrass, Italian plant response rating (0 to 100 scale): 62 g ai/ha, 0 is no effect, 13 to 15 days
Procedure, shortened: (§1)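 Visual ratings on a 0–100 scale (100 = complete control) were made versus untreated controls 13–15 days after treatment in a greenhouse. Compounds in surfactant-containing non-phytotoxic solvent were applied preemergence to seeds in loam–sand blend or postemergence to 1- to 4-leaf plants (2–18 cm).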

[2] = test system: bermudagrass (Cynodon dactylon); details: for Bermudagrass plant response rating (0 to 100 scale): 62 g ai/ha, 0 is no effect, 13 to 15 days
Procedure, shortened: as §1

[3] = test system: cocklebur (Xanthium strumarium); details: for Cocklebur plant response rating (0 to 100 scale): 62 g ai/ha, 0 is no effect, 13 to 15 days
Procedure, shortened: as §1

[4] = test system: downy bromegrass (Bromus tectorum); details: for Bromegrass, Downy plant response rating (0 to 100 scale): 62 g ai/ha, 0 is no effect, 13 to 15 days
Procedure, shortened: as §1

[5] = test system: kochia (Kochia scoparia); details: for Kochia plant response rating (0 to 100 scale): 62 g ai/ha, 0 is no effect, 13 to 15 days
Procedure, shortened: as §1

[6] = test system: large crabgrass (Digitaria sanguinalis); details: for Crabgrass, Large plant response rating (0 to 100 scale): 62 g ai/ha, 0 is no effect, 13 to 15 days
Procedure, shortened: as §1

[7] = test system: morningglory (Ipomoea coccinea); details: for Morningglory plant response rating (0 to 100 scale): 62 g ai/ha, 0 is no effect, 13 to 15 days
Procedure, shortened: as §1

[8] = test system: soybean (Glycine max); details: for Soybean plant response rating (0 to 100 scale): 62 g ai/ha, 0 is no effect, 13 to 15 days
Procedure, shortened: as §1

[9] = test system: velvetleaf (Abutilon theophrasti); details: for Velvetleaf plant response rating (0 to 100 scale): 62 g ai/ha, 0 is no effect, 13 to 15 days
Procedure, shortened: as §1

[10] = test system: wheat (Triticum aestivum); details: for Wheat plant response rating (0 to 100 scale): 62 g ai/ha, 0 is no effect, 13 to 15 days
Procedure, shortened: as §1

[11] = test system: woolly cupgrass (Eriochloa villosa); details: for Cupgrass, Woolly plant response rating (0 to 100 scale): 62 g ai/ha, 0 is no effect, 13 to 15 days
Procedure, shortened: as §1

[12] = test system: yellow nutsedge (Cyperus esculentus); details: for Nutsedge, Yellow plant response rating (0 to 100 scale): 62 g ai/ha, 0 is no effect, 13 to 15 days
Procedure, shortened: as §1

[13] = 31 g ai/ha, postemergence, scale 0 to 100, 0 is no effect, 100 is complete control
[14] = postemergence, 100 is complete control
[15] = Postemergence, 250 g ai/ha, scale 0 to 100 (0 no effect, 100 complete control)
[16] = Postemergence, 125 g ai/ha, visual rating after 13 to 15 days, scale 0 (no effect) to 100 (complete control)

Compound: CCCCCn1c(-c2ccccc2)ncc(C(=O)C2=C(O)CCCC2=O)c1=O [Compound 89]
- Plant response rating, Ryegrass, Italian [1, 13]: 0
- Ryegrass, Italian plant response rating (0 to 100 scale) [1, 14]: 5
- Plant response rating, Ryegrass, Italian [1, 15]: 30
- Plant response rating, Bermudagrass [2, 13]: 75
- Bermudagrass plant response rating (0 to 100 scale) [2, 14]: 85
- Plant response rating, Bermudagrass [2, 16]: 95
- Plant response rating, Bermudagrass [2, 15]: 95
- Plant response rating, Cocklebur [3, 13]: 10
- Cocklebur plant response rating (0 to 100 scale) [3, 14]: 60
- Plant response rating, Cocklebur [3, 16]: 65
- Plant response rating, Cocklebur [3, 15]: 70
- Plant response rating, Bromegrass, Downy [4, 13]: 0
- Bromegrass, Downy plant response rating (0 to 100 scale) [4, 14]: 0
- Plant response rating, Bromegrass, Downy [4, 16]: 5
- Plant response rating, Bromegrass, Downy [4, 15]: 5
- Plant response rating, Kochia [5, 13]: 65
- Kochia plant response rating (0 to 100 scale) [5, 14]: 75
- Plant response rating, Kochia [5, 15]: 100
- Plant response rating, Crabgrass, Large [6, 13]: 85
- Crabgrass, Large plant response rating (0 to 100 scale) [6, 14]: 95
- Plant response rating, Crabgrass, Large [6, 16]: 95
- Plant response rating, Crabgrass, Large [6, 15]: 98
- Plant response rating, Morningglory [7, 13]: 70
- Morningglory plant response rating (0 to 100 scale) [7, 14]: 85
- Plant response rating, Morningglory [7, 15]: 100
- Plant response rating, Soybean [8, 13]: 90
- Soybean plant response rating (0 to 100 scale) [8, 14]: 90
- Plant response rating, Soybean [8, 15]: 98
- Plant response rating, Velvetleaf [9, 13]: 90
- Velvetleaf plant response rating (0 to 100 scale) [9, 14]: 95
- Plant response rating, Velvetleaf [9, 15]: 100
- Plant response rating, Wheat [10, 13]: 0
- Wheat plant response rating (0 to 100 scale) [10, 14]: 5
- Plant response rating, Wheat [10, 15]: 10
- Plant response rating, Cupgrass, Woolly [11, 13]: 35
- Cupgrass, Woolly plant response rating (0 to 100 scale) [11, 14]: 50
- Plant response rating, Cupgrass, Woolly [11, 16]: 65
- Plant response rating, Cupgrass, Woolly [11, 15]: 75
- Plant response rating, Nutsedge, Yellow [12, 13]: 35
- Nutsedge, Yellow plant response rating (0 to 100 scale) [12, 14]: 55
- Plant response rating, Nutsedge, Yellow [12, 15]: 75

Compound: CC(C)n1c(-c2ccccc2)ncc(C(=O)C2=C(O)CCCC2=O)c1=O [Compound 95]
- Plant response rating, Ryegrass, Italian [1, 13]: 0
- Ryegrass, Italian plant response rating (0 to 100 scale) [1, 14]: 0
- Plant response rating, Ryegrass, Italian [1, 15]: 0
- Plant response rating, Bermudagrass [2, 13]: 45
- Bermudagrass plant response rating (0 to 100 scale) [2, 14]: 75
- Plant response rating, Bermudagrass [2, 16]: 75
- Plant response rating, Bermudagrass [2, 15]: 90
- Plant response rating, Cocklebur [3, 13]: 70
- Cocklebur plant response rating (0 to 100 scale) [3, 14]: 95
- Plant response rating, Cocklebur [3, 16]: 100
- Plant response rating, Cocklebur [3, 15]: 100
- Plant response rating, Bromegrass, Downy [4, 13]: 0
- Bromegrass, Downy plant response rating (0 to 100 scale) [4, 14]: 0
- Plant response rating, Bromegrass, Downy [4, 16]: 0
- Plant response rating, Bromegrass, Downy [4, 15]: 0
- Plant response rating, Kochia [5, 13]: 80
- Kochia plant response rating (0 to 100 scale) [5, 14]: 100
- Plant response rating, Kochia [5, 15]: 100
- Plant response rating, Crabgrass, Large [6, 13]: 45
- Crabgrass, Large plant response rating (0 to 100 scale) [6, 14]: 65
- Plant response rating, Crabgrass, Large [6, 16]: 75
- Plant response rating, Crabgrass, Large [6, 15]: 80
- Plant response rating, Morningglory [7, 13]: 100
- Morningglory plant response rating (0 to 100 scale) [7, 14]: 100
- Plant response rating, Morningglory [7, 15]: 100
- Plant response rating, Soybean [8, 13]: 95
- Soybean plant response rating (0 to 100 scale) [8, 14]: 98
- Plant response rating, Soybean [8, 15]: 98
- Plant response rating, Velvetleaf [9, 13]: 85
- Velvetleaf plant response rating (0 to 100 scale) [9, 14]: 95
- Plant response rating, Velvetleaf [9, 15]: 100
- Plant response rating, Wheat [10, 13]: 0
- Wheat plant response rating (0 to 100 scale) [10, 14]: 0
- Plant response rating, Wheat [10, 15]: 0
- Plant response rating, Cupgrass, Woolly [11, 13]: 45
- Cupgrass, Woolly plant response rating (0 to 100 scale) [11, 14]: 55
- Plant response rating, Cupgrass, Woolly [11, 16]: 65
- Plant response rating, Cupgrass, Woolly [11, 15]: 65
- Plant response rating, Nutsedge, Yellow [12, 13]: 75
- Nutsedge, Yellow plant response rating (0 to 100 scale) [12, 14]: 75
- Plant response rating, Nutsedge, Yellow [12, 15]: 85
